Each compound was assayed on Leishmania amazonensis (assay: Inhibition on leishmania mexicana amazonensis.).
Assay type: functional, organism-based
For `COc1cc(C2=NCCN2)ccc1OCCCCCOc1ccc(C2=NCCN2)cc1OC`, the IC50 was 4.04 mM. `N=C(N)c1ccc(NCCCCCCNc2ccc(C(=N)N)cc2)cc1` showed an IC50 of 0.289 mM. `COc1cc(C(=N)N)ccc1OCCCCCOc1ccc(C(=N)N)cc1OC` was tested, and the IC50 was 3.03 mM. `N=C(N)c1ccc(NCCCNc2ccc(C(=N)N)cc2[N+](=O)[O-])c([N+](=O)[O-])c1` showed an IC50 of 4.83 mM. With `N=C(N)c1ccc(OCCOc2ccc(C(=N)N)cc2)cc1` the IC50 was 15.8 mM. Work on `N=C(N)c1cccc(OCCCCCOc2cccc(C(=N)N)c2)c1` yielded an IC50 of 2.13 mM. `COc1cc(C(=N)N)ccc1OCCCCOc1ccc(C(=N)N)cc1OC` was tested, and the IC50 was 10 mM. In the case of `N=C(N)c1ccc(NCCCCNc2ccc(C(=N)N)cc2)cc1`, the IC50 is reported as 0.671 mM.

The compounds below were run against T1, Aryl hydrocarbon receptor (Homo sapiens, UniProt P35869).
T1 sequence (P35869 whole entry): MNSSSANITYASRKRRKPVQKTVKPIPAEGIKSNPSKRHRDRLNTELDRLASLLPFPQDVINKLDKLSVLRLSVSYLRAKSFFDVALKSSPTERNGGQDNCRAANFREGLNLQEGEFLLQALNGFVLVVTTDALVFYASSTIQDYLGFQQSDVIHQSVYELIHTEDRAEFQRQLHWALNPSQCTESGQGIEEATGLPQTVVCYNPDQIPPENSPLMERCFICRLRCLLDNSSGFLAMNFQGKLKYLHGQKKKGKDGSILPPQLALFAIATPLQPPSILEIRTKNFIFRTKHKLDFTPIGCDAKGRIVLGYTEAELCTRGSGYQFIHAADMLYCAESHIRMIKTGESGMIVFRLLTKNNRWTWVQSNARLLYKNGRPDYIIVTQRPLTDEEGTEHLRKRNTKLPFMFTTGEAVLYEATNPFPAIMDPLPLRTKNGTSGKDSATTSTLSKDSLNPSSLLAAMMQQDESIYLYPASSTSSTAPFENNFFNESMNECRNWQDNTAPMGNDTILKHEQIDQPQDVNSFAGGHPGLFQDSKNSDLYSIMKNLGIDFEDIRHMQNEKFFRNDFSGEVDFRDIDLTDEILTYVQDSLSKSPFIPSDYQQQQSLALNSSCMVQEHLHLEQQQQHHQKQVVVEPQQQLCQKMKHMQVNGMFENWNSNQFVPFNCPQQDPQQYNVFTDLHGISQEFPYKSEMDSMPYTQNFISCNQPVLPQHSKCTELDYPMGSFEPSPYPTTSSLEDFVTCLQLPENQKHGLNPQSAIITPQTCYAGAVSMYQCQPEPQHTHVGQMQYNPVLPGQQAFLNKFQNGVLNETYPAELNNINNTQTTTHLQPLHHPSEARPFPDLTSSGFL
Description: Affinity on cytosolic Aromatic hydrocarbon receptor (Ah)
`Clc1cc(Cl)c2c(c1)oc1cc(Cl)c(Cl)c(Cl)c12` gave an EC50 of 400 nM. Work on `Clc1cc2c(cc1Cl)Oc1c(Cl)cccc1O2` yielded an EC50 of 220 nM. `Clc1cc2oc3cc(Cl)c(Cl)cc3c2cc1Cl` showed an EC50 of 41 nM. For `Clc1ccc2oc3c(Cl)c(Cl)c(Cl)cc3c2c1`, the EC50 was 200 nM. `Clc1ccc(-c2cc(Cl)c(Cl)c(Cl)c2)c(Cl)c1` showed an EC50 of 14100 nM. `Clc1cc2c(cc1Cl)Oc1c(Cl)c(Cl)cc(Cl)c1O2` was tested, and the EC50 was 1100 nM. For `Clc1cc2c(oc3cc(Cl)c(Cl)c(Cl)c32)c(Cl)c1Cl`, the EC50 was 270 nM. In the case of `Clc1ccc(-c2ccc(Cl)c(Cl)c2)cc1Cl`, the EC50 is reported as 710 nM. `Clc1cc(Cl)c(-c2cc(Cl)c(Cl)cc2Cl)cc1Cl` [2,2',4,4',5,5'-HEXACHLOROBIPHENYL] showed an EC50 of 79400 nM. `Clc1cc2c(cc1Cl)Oc1cc(Cl)c(Cl)cc1O2` [2,3,7,8-TETRACHLORODIBENZO-P-DIOXIN] showed an EC50 of 10 nM. `Clc1ccc(-c2cc(Cl)c(Cl)c(Cl)c2)cc1Cl` [POLYCHLORINATED BIPHENYL 126] showed an EC50 of 130 nM.

These compounds were tested against Acetylcholinesterase (Homo sapiens, UniProt P22303).
Acetylcholinesterase, sequence (P22303 whole entry): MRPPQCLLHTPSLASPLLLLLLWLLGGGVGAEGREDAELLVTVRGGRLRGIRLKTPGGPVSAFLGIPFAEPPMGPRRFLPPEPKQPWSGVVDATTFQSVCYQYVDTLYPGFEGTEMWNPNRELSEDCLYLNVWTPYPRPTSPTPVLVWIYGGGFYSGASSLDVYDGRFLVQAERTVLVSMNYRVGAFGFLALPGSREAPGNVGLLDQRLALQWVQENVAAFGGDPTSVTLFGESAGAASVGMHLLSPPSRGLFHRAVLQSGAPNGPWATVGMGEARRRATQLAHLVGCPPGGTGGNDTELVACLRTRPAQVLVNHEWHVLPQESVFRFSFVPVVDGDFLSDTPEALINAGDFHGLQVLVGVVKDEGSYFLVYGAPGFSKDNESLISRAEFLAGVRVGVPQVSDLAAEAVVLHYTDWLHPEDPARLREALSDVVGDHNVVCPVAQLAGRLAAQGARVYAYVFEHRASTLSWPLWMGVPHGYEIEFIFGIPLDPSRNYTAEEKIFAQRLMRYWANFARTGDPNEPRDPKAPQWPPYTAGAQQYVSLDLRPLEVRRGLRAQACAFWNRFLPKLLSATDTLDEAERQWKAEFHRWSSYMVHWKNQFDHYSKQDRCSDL
Description: Inhibition acetylcholinesterase (AChE) enzyme.
`CCOCC[N+](C)(C)C` was tested, and the IC50 was 1160 µM. With `C=CCC[N+](C)(C)C` the IC50 was 847 µM. For `C=CC[N+](C)(C)C`, the IC50 was 2920 µM. `C[N+](C)(C)CCS` gave an IC50 of 440 µM. In the case of `COc1cccc([N+](C)(C)C)c1`, the IC50 is reported as 597 µM. `CCCCCC[N+](C)(C)C` showed an IC50 of 817 µM. For `CCC(=O)Oc1cccc([N+](C)(C)C)c1`, the IC50 was 5.97 µM. `CCSCC[N+](C)(C)C` was tested, and the IC50 was 1510 µM. `CCC(=O)Oc1ccc(C)c([N+](C)(C)C)c1` gave an IC50 of 69 µM. Compound `CCC(=O)Oc1cccc([N+](C)(C)C)c1C` has an IC50 of 753 µM. In the case of `CC(=O)Oc1cccc([N+](C)(C)C)c1C`, the IC50 is reported as 40.8 µM. `COc1ccc(C)c([N+](C)(C)C)c1` showed an IC50 of 345 µM. In the case of `CC(=O)CCC[N+](C)(C)C`, the IC50 is reported as 84.7 µM. Compound `CC(=O)Nc1cccc([N+](C)(C)C)c1` has an IC50 of 1000 µM. `Cc1ccc([N+](C)(C)C)cc1O` showed an IC50 of 3.11 µM. In the case of `Cc1ccc(O)cc1[N+](C)(C)C`, the IC50 is reported as 2.82 µM. With `CCC(=O)Oc1cc([N+](C)(C)C)ccc1C` the IC50 was 3.77 µM. Work on `COc1cc([N+](C)(C)C)ccc1C` yielded an IC50 of 122 µM. `C[N+]1(C)CCO[C@@](O)(c2ccc(N)cc2)C1` showed an IC50 of 690 µM. With `CC(=O)Oc1cc([N+](C)(C)C)ccc1C` the IC50 was 0.659 µM. In the case of `C[N+](C)(C)CCCBr`, the IC50 is reported as 87.9 µM. For `CCCC(=O)SCC[N+](C)(C)C`, the IC50 was 126 µM. For `C=CCCC[N+](C)(C)C`, the IC50 was 1130 µM. With `C[N+](C)(C)c1cccc(N)c1` the IC50 was 192 µM. With `C[N+]1(C)CCO[C@@](O)(c2ccc(C#N)cc2)C1` the IC50 was 11600 µM. Compound `COc1cccc([N+](C)(C)C)c1C` has an IC50 of 239 µM. `C[N+]1(C)CCO[C@@](O)(c2ccc(Cl)cc2)C1` was tested, and the IC50 was 8130 µM. `C[N+](C)(C)CCCCI` was tested, and the IC50 was 471 µM. With `CC(=O)Oc1ccc(C)c([N+](C)(C)C)c1` the IC50 was 5.33 µM. Compound `C[N+](C)(C)CCCl` has an IC50 of 2390 µM. With `CC(=O)Nc1ccc([C@@]2(O)C[N+](C)(C)CCO2)cc1` the IC50 was 2070 µM. `CCCC(=O)OCC[N+](C)(C)C` was tested, and the IC50 was 229 µM. `C[C@@]1(O)C[N+](C)(C)CCO1` gave an IC50 of 1730 µM. With `Cc1c(O)cccc1[N+](C)(C)C` the IC50 was 141 µM. Work on `CC(=O)Oc1cccc([N+](C)(C)C)c1` yielded an IC50 of 3.01 µM. `C[N+](C)(C)CCCCCBr` was tested, and the IC50 was 535 µM. Work on `C[N+]1(C)CCO[C@@](O)(C(F)(F)F)C1` yielded an IC50 of 3830 µM. For `C[N+](C)(C)CCCCBr`, the IC50 was 597 µM. In the case of `C[N+]1(C)CCO[C@H](O)C1`, the IC50 is reported as 1760 µM. `C[N+](C)(C)c1cccc(O)c1` was tested, and the IC50 was 0.973 µM. For `CC(C)(C)[C@@]1(O)C[N+](C)(C)CCO1`, the IC50 was 3710 µM. `C[N+](C)(C)c1cccc([N+](=O)[O-])c1` was tested, and the IC50 was 628 µM. In the case of `C[N+]1(C)CCO[C@@](O)(c2ccc([N+](=O)[O-])cc2)C1`, the IC50 is reported as 5120 µM.

What follows are compounds tested against GABA-A receptor; anion channel.
Description: Inhibition on Benzodiazepine receptor
Compound `CC(C)COc1cc2c(cn1)[nH]c1ccccc12` has a pIC50 of 7.03. With `CC(C)(C)COc1cc2c3ccccc3nc-2c[nH]1` the pIC50 was 7.02. `CC(C)(C)C(=O)c1cc2c3ccccc3nc-2c[nH]1` gave a pIC50 of 6.45. `Cn1c2ccccc2c2c3[nH]c4ccccc4c3ncc21` was tested, and the pIC50 was 5.93. With `c1ccc2c(c1)[nH]c1c2ncc2[nH]c3ccccc3c21` the pIC50 was 8.4. Compound `Clc1cccc2[nH]c3c4c5ccccc5nc-4c[nH]c3c12` has a pIC50 of 6.15. In the case of `Cc1ccc2[nH]c3c4c5ccccc5nc-4c[nH]c3c2c1`, the pIC50 is reported as 6.65. With `CC(C)(C)OC(=O)c1cc2c3ccccc3nc-2c[nH]1` the pIC50 was 8. With `COc1ccc(-n2nc3c4ccccc4[nH]cc-3c2=O)cc1` the pIC50 was 10. Work on `CCc1nc(C(=O)OC)cc2c1[nH]c1ccccc12` yielded a pIC50 of 5.12. `CC(C)Oc1cc2c(cn1)[nH]c1ccccc12` showed a pIC50 of 6.29. In the case of `CCCCOc1cc2c(cn1)[nH]c1ccccc12`, the pIC50 is reported as 7.01. `COc1cc2c(cn1)[nH]c1ccccc12` gave a pIC50 of 6.91. Compound `Clc1cc2c(cn1)[nH]c1ccccc12` has a pIC50 of 7.35. `CCOc1cc2c(cn1)[nH]c1ccccc12` gave a pIC50 of 7.62. With `CCCOc1cc2c(cn1)[nH]c1ccccc12` the pIC50 was 7.96. With `CCCC(=O)c1cc2c(cn1)[nH]c1ccccc12` the pIC50 was 7.64. `CCCCc1cc2c(cn1)[nH]c1ccccc12` was tested, and the pIC50 was 6.64. `O=[N+]([O-])c1cc2c3ccccc3nc-2c[nH]1` showed a pIC50 of 6.9. For `c1ccc2c(c1)[nH]c1c2ccc2[nH]c3ccccc3c21`, the pIC50 was 5.71. Work on `CCOC(=O)c1cc2c(cn1)sc1ccccc12` yielded a pIC50 of 5.77. `Cc1ccc2c(c1)[nH]c1c3c4ccccc4nc-3c[nH]c12` showed a pIC50 of 8.1. Compound `Cc1cccc2c1[nH]c1c3c4ccccc4nc-3c[nH]c12` has a pIC50 of 7.17. For `CCOC(=O)c1cc2c(cn1)Cc1ccccc1-2`, the pIC50 was 6.17. In the case of `CCOC(=O)c1cc2c(cn1)nc(O)c1ccccc12`, the pIC50 is reported as 5.62. `COc1cccc2[nH]c3c4c5ccccc5nc-4c[nH]c3c12` showed a pIC50 of 6.6. With `CC(C)(C)COC(=O)c1cc2c3ccccc3nc-2c[nH]1` the pIC50 was 6.12. Work on `Cc1cccc2[nH]c3c4c5ccccc5nc-4c[nH]c3c12` yielded a pIC50 of 5.16. Work on `Cn1c2ccccc2c2[nH]cc3nc4ccccc4c-3c21` yielded a pIC50 of 6.8. `CCOC(=O)c1cc2c(cn1)oc1ccccc12` was tested, and the pIC50 was 5.07. Work on `CCC(C)Oc1cc2c3ccccc3nc-2c[nH]1` (stereo not given) yielded a pIC50 of 6.33. In the case of `c1ccc(COc2cc3c4ccccc4nc-3c[nH]2)cc1`, the pIC50 is reported as 6. Work on `CC(C)CCOc1cc2c3ccccc3nc-2c[nH]1` yielded a pIC50 of 6.37. For `COC(=O)c1cc2c(cn1)[nH]c1ccccc12` [BETA-CCM], the pIC50 was 8.3. In the case of `O=C1C2C=Nc3ccccc3C2=NN1c1ccccc1` (stereo not given) [CGS-8216], the pIC50 is reported as 9.4. For `O=C1C2C=Nc3ccccc3C2=NN1c1ccc(Cl)cc1` (stereo not given) [CGS-9896], the pIC50 was 9.22. `Cc1nccc2c1[nH]c1ccccc12` [HARMAN] showed a pIC50 of 4.91. For `c1ccc2c(c1)[nH]c1cnccc12` [NORHARMANE], the pIC50 was 5.79.

Reference: ChEMBL document CHEMBL1130277, “Three-dimensional quantitative structure-activity relationships from molecular similarity matrices and genetic neural networks. 2. Applications” (J Med Chem, 1997)
